Blank lines part the entries; values can stand above or below the compound they belong to.
Legend:
[1] = target: Casein kinase I isoform epsilon (Homo sapiens) (UniProt P49674); assay: Inhibition of CK1-epsilon (unknown origin) at 0.164 uM relative to control
[2] = target: Calcium/calmodulin-dependent protein kinase type II subunit gamma (Homo sapiens) (UniProt Q13555); assay: Inhibition of CaMK2-gamma (unknown origin) at 0.164 uM relative to control
[3] = system: Leucine-rich repeat serine/threonine-protein kinase 2 (Homo sapiens), Q5S007 [G2019S]; assay: Inhibition of LRRK2 G2019S mutant (unknown origin) at 0.164 uM relative to control
[4] = system: Proto-oncogene tyrosine-protein kinase receptor Ret (Homo sapiens), P07949 [Y791F]; assay: Inhibition of RET Y791F mutant (unknown origin) at 0.164 uM relative to control
Proto-oncogene tyrosine-protein kinase receptor Ret (Homo sapiens), P07949 [Y791F], sequence (P07949 whole entry Y791F): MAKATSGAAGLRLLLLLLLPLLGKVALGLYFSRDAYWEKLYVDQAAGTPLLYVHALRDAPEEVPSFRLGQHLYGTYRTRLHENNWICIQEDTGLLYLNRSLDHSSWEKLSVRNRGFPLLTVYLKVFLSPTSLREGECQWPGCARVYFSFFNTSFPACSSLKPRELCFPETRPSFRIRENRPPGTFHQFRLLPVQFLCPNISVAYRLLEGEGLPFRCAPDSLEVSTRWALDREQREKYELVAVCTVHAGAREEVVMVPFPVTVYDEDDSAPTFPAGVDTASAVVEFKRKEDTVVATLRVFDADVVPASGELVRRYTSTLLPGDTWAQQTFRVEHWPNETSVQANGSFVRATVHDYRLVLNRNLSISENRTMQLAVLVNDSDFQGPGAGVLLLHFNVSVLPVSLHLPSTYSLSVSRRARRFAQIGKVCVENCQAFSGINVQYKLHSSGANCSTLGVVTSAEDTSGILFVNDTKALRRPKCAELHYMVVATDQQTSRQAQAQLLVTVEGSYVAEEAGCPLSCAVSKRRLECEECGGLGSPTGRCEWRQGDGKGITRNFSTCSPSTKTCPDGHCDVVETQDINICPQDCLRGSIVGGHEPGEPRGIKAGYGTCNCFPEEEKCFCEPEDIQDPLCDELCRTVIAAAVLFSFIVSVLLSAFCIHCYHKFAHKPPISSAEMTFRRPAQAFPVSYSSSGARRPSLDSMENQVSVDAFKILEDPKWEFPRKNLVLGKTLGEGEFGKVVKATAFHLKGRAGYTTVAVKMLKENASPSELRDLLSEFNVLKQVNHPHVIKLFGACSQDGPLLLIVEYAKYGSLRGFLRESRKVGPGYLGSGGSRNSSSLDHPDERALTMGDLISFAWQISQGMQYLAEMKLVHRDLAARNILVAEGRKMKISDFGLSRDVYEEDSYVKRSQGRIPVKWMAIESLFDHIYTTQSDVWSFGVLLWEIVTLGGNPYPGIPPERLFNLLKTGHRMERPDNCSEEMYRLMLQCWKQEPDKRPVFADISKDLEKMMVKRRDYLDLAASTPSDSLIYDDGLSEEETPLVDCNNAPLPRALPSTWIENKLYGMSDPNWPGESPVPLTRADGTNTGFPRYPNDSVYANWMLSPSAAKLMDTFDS

[5] = target: cAMP-dependent protein kinase catalytic subunit PRKX (Homo sapiens) (UniProt P51817); assay: Inhibition of PRKX (unknown origin) at 0.164 uM relative to control
cAMP-dependent protein kinase catalytic subunit PRKX (Homo sapiens), sequence (P51817 whole entry): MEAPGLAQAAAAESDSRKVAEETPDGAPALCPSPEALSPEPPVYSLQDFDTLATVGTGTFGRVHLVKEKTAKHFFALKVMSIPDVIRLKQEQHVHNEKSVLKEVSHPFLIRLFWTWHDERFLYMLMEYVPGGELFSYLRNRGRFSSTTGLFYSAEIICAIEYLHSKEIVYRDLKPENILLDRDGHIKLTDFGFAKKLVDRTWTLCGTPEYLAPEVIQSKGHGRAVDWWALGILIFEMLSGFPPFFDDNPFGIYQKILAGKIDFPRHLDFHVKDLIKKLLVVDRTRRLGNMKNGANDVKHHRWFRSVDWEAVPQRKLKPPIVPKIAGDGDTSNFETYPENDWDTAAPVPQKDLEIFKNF

[6] = target: Serine/threonine-protein kinase PAK 3 (Homo sapiens) (UniProt O75914); assay: Inhibition of PAK3 (unknown origin) at 0.164 uM relative to control
[7] = target: Epidermal growth factor receptor (Homo sapiens) (UniProt P00533); assay: Inhibition of EGFR (unknown origin) at 0.164 uM relative to control
[8] = target: Proto-oncogene tyrosine-protein kinase ROS (Homo sapiens) (UniProt P08922); assay: Inhibition of ROS (unknown origin) at 0.164 uM relative to control
[9] = target: Serine/threonine-protein kinase Sgk2 (Homo sapiens) (UniProt Q9HBY8); assay: Inhibition of SGK2 (unknown origin) at 0.164 uM relative to control
[10] = target: Ephrin type-B receptor 1 (Homo sapiens) (UniProt P54762); assay: Inhibition of EPHB1 (unknown origin) at 0.164 uM relative to control
Ephrin type-B receptor 1 (Homo sapiens), sequence (P54762 whole entry): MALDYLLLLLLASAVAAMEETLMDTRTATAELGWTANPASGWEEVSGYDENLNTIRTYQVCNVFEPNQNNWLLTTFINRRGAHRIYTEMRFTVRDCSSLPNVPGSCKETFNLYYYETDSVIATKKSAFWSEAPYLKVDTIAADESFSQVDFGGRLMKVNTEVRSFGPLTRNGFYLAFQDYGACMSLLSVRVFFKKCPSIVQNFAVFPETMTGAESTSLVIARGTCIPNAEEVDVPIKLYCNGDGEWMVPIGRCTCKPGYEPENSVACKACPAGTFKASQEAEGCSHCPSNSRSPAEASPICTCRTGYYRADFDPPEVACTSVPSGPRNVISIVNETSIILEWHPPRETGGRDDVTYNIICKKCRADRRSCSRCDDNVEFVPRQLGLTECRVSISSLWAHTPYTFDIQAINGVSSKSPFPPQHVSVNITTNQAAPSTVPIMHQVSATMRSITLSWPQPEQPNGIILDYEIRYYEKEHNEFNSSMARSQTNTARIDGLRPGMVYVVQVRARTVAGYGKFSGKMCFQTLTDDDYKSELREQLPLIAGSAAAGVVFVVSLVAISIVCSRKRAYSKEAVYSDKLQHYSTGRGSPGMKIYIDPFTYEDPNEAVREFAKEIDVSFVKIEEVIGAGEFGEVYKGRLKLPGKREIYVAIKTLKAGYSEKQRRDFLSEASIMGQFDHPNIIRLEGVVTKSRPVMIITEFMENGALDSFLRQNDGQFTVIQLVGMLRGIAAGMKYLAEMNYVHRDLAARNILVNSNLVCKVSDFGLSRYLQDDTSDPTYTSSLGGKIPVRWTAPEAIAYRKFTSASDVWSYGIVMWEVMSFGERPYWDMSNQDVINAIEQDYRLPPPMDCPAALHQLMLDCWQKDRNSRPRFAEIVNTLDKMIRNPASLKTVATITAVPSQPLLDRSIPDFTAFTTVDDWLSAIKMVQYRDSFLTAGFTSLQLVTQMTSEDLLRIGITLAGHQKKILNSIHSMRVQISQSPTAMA

[11] = target: Hepatocyte growth factor receptor (Homo sapiens) (UniProt P08581); assay: Inhibition of MET (unknown origin) at 0.164 uM relative to control
[12] = target: T1, Testis-specific serine/threonine-protein kinase 1 (Homo sapiens) (UniProt Q9BXA7); assay: Inhibition of TSSK1 (unknown origin) at 0.164 uM relative to control
T1 sequence (whole entry): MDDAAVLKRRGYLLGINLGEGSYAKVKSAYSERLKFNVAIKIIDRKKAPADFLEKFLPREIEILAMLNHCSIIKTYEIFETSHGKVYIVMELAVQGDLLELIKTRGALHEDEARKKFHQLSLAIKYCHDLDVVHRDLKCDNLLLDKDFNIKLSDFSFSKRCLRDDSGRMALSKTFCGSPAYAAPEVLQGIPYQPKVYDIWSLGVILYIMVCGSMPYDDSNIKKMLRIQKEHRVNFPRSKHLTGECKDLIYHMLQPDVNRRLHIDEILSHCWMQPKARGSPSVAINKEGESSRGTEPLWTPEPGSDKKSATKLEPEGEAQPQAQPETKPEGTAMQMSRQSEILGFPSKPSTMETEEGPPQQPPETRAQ

[13] = target: Dual specificity protein kinase CLK3 (Homo sapiens) (UniProt P49761); assay: Inhibition of CLK3 (unknown origin) at 0.164 uM relative to control
[14] = target: Glycogen synthase kinase-3 alpha (Homo sapiens) (UniProt P49840); assay: Inhibition of GSK3-alpha (unknown origin) at 0.164 uM relative to control
Glycogen synthase kinase-3 alpha (Homo sapiens), sequence (P49840 2-483 limits assumed): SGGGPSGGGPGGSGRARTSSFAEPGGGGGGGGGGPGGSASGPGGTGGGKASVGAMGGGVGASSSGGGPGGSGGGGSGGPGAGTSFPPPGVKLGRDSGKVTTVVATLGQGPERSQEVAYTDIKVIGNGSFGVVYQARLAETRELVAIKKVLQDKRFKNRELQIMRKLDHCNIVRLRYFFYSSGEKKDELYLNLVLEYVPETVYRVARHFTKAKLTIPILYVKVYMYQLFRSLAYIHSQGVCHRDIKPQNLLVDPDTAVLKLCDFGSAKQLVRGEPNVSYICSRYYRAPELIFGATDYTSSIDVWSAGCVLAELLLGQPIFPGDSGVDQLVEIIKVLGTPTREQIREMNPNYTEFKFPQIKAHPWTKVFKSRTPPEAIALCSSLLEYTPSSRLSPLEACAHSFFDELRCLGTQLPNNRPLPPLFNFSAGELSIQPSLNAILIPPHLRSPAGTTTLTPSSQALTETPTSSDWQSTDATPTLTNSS

[15] = target: Homeodomain-interacting protein kinase 2 (Homo sapiens) (UniProt Q9H2X6); assay: Inhibition of HIPK2 (unknown origin) at 0.164 uM relative to control
[16] = target: T2, MAP kinase-activated protein kinase 5 (Homo sapiens) (UniProt Q8IW41); assay: Inhibition of PRAK (unknown origin) at 0.19 uM relative to control
T2 sequence (whole entry): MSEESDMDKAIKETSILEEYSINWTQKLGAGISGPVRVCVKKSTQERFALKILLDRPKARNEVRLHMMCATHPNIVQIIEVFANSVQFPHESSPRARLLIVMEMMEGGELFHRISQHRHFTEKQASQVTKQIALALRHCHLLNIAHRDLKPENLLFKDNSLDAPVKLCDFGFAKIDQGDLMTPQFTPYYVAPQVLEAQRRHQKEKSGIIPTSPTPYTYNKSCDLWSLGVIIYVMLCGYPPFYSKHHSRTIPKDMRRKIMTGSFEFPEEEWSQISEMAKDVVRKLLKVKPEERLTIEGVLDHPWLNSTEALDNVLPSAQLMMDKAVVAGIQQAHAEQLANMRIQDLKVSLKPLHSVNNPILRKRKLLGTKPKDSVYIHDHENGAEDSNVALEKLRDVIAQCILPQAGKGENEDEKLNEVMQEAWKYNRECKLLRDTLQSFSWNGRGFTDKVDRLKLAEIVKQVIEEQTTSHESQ

[17] = system: Tyrosine-protein kinase ABL1 (Homo sapiens), P00519 [G250E]; assay: Inhibition of ABL1 G250E mutant (unknown origin) at 0.19 uM relative to control
[18] = target: CDK6/cyclin D3 (Homo sapiens) (UniProt P30281+Q00534); assay: Inhibition of CDK6/CyclinD3 (unknown origin) at 0.19 uM relative to control; type: protein-complex assay
[19] = target: Misshapen-like kinase 1 (Homo sapiens) (UniProt Q8N4C8); assay: Inhibition of MINK (unknown origin) at 0.19 uM relative to control
[20] = target: MAP/microtubule affinity-regulating kinase 4 (Homo sapiens) (UniProt Q96L34); assay: Inhibition of MARK4 (unknown origin) at 0.19 uM relative to control
[21] = target: Calcium/calmodulin-dependent protein kinase type IV (Homo sapiens) (UniProt Q16566); assay: Inhibition of CAMK4 (unknown origin) at 0.19 uM relative to control
[22] = target: Platelet-derived growth factor receptor beta (Homo sapiens) (UniProt P09619); assay: Inhibition of PDGFR beta (unknown origin) at 0.19 uM relative to control
Platelet-derived growth factor receptor beta (Homo sapiens), sequence (P09619 whole entry): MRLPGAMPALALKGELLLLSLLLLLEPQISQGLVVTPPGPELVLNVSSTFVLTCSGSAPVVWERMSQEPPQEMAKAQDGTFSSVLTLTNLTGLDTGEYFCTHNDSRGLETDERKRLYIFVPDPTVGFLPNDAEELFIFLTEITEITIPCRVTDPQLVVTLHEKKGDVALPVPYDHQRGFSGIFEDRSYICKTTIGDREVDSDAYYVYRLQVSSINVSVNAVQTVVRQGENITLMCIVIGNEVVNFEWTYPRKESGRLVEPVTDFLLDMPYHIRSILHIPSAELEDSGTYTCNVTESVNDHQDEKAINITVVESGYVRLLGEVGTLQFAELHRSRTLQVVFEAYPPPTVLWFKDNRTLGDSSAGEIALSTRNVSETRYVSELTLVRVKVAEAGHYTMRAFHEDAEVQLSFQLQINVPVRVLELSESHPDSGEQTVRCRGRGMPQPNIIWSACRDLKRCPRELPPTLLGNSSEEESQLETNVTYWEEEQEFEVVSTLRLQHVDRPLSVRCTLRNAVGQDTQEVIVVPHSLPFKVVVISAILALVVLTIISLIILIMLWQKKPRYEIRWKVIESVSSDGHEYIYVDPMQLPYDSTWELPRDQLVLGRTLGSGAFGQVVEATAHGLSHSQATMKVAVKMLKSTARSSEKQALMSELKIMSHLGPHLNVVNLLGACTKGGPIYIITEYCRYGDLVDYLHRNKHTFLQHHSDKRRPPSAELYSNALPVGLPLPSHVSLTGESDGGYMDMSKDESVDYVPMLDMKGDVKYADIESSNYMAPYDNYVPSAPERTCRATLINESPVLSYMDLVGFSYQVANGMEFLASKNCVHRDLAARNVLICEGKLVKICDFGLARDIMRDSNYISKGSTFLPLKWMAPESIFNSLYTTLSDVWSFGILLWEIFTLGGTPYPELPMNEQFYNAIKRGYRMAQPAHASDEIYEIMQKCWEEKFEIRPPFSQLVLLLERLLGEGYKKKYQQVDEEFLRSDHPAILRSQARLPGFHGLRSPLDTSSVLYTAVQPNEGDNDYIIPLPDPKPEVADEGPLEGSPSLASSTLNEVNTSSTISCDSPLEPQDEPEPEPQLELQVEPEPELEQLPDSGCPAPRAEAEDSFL

[23] = target: Serine/threonine-protein kinase BRSK2 (Homo sapiens) (UniProt Q8IWQ3); assay: Inhibition of BRSK2 (unknown origin) at 0.19 uM relative to control
[24] = target: Casein kinase I isoform delta (Homo sapiens) (UniProt P48730); assay: Inhibition of CK1-delta (unknown origin) at 0.19 uM relative to control
[25] = target: Mitogen-activated protein kinase kinase kinase kinase 2 (Homo sapiens) (UniProt Q12851); assay: Inhibition of GCK (unknown origin) at 0.19 uM relative to control
Mitogen-activated protein kinase kinase kinase kinase 2 (Homo sapiens), sequence (Q12851 whole entry, looked up): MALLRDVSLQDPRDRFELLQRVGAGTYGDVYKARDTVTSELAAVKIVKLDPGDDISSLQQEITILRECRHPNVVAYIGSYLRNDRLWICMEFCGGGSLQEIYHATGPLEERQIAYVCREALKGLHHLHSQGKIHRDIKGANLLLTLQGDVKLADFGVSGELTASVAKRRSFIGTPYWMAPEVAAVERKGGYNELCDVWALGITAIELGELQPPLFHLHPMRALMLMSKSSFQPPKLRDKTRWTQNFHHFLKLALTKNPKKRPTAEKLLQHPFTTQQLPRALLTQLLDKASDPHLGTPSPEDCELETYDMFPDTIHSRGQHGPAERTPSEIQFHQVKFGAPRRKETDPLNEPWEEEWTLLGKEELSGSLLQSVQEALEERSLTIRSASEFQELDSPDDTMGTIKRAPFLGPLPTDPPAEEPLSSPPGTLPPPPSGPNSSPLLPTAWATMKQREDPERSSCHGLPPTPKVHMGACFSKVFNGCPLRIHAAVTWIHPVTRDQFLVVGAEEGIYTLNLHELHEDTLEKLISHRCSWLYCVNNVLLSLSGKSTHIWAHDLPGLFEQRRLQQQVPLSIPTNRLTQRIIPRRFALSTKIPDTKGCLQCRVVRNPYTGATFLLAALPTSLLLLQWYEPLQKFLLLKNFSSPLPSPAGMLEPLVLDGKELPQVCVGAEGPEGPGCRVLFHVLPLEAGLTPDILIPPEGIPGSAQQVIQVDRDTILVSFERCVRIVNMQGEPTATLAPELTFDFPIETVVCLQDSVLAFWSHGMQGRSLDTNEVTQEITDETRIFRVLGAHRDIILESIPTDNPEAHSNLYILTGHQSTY

[26] = target: Glycogen synthase kinase-3 alpha (Homo sapiens) (UniProt P49840); assay: Inhibition of GSK3-alpha (unknown origin) at 0.19 uM relative to control
[27] = target: Serine/threonine-protein kinase D2 (Homo sapiens) (UniProt Q9BZL6); assay: Inhibition of PKD2 (unknown origin) at 0.19 uM relative to control
[28] = target: Macrophage-stimulating protein receptor (Homo sapiens) (UniProt Q04912); assay: Inhibition of MST1R (unknown origin) at 0.19 uM relative to control

inhibition [1]: 2.7%
inhibition [2]: 18%
inhibition [3]: 2.3%
inhibition [4]: 6%
inhibition [5]: -3.3%
inhibition [6]: -2%
inhibition [7]: -2%
inhibition [8]: 4%
inhibition [9]: -0.7%
inhibition [10]: 3%
inhibition [11]: 0%
inhibition [12]: -4.3%
inhibition [13]: 3.7%
inhibition [14]: 1%
inhibition [15]: 3.3%
SMILES: COC(=O)Nc1cc(-c2c(C3CC3)n[nH]c2C)cc2[nH]ncc12

inhibition [16]: 1.3%
inhibition [17]: 68.3%
inhibition [18]: -2%
inhibition [19]: 82.7%
inhibition [20]: 0.7%
inhibition [21]: 1.3%
inhibition [22]: 97%
inhibition [23]: 6.3%
inhibition [24]: 0%
inhibition [25]: 16.7%
inhibition [26]: 1.7%
inhibition [27]: 9%
inhibition [28]: -4.3%
SMILES: Cc1[nH]nc(C2CC2)c1-c1ccc2c(-c3ccc(N4CCN(C)CC4)nc3)n[nH]c2c1

Reference: ChEMBL document CHEMBL4118098, “Discovery of DS28120313 as a potent orally active hepcidin production inhibitor: Design and optimization of novel 4,6-disubstituted indazole derivatives” (Bioorg Med Chem Lett, 2017)
